Experimental findings from US11723894B2, “Combination product for the treatment of neurological and/or psychiatric disorders” (Consejo Superior de Investigaciones Cientificas (CSIC), priority 2017, dated 2023) are described below.

For series [1], the system named is astrocytes. As to the kind of experiment: LPS-induced nitrite production (Griess) in primary astrocyte cultures. The format is cell-based, rat. The note with it: for reduction of LPS-induced nitrite in the presence of Rit: Rit 1 μM 1 h before tryptamine 1 μM, then LPS 10 μg/mL 24 h; for LPS-induced nitrite increases: tryptamine 1 μM before LPS 10 μg/mL, 24 h, vs LPS alone. Here is the method: (§1) Example 8: DMT, DET, DPT and 5-MeO-DMT administration in vitro prevents inflammation in rat primary glial cells. […] Rat primary glial cell cultures were prepared from the cerebral cortex of 3 day old rats which were dissected, dissociated, and incubated with 0.25% trypsin/EDTA at 37° C. for 1 h. After centrifugation, the pellet was washed three times with HBSS (Gibco) and the cells were plated in poly-D-lysine (20 μg/mL) pretreated flasks (75 cm2). After 7-10 days, the flasks were agitated in an orbital shaker for 4 h at 230 rpm at 37° C. and non-adherent microglial cells were isolated and plated. Then Dulbecco's Modified Eagle's Medium (DMEM) was added to the flasks, which were agitated in a horizontal shaker at 260 rpm at 37° C. After overnight agitation, the supernatant (oligodendrocytes and some remaining microglial cells) was removed, and astrocytes (adherent cells) were collected. The purity of the cultures was >95%, as determined by immunofluorescence analysis using an anti-glial fibrillary acidic protein (GFAP; clone G-A-5; Sigma-Aldrich) antibody to identify astrocytes, and an anti-Iba1 (Wako Catalog No. 019-19741) antibody to identify microglial cells. On attaining semiconfluence, cells were administered each of the test tryptamines at 1 μM or with the combination test tryptamine+Ritanserin (Rit at 1 μM) 2 h before exposure to lipopolysaccharide (LPS, 10 μg/mL; Sigma-Aldrich) and kept in the presence of each drug or drug combination for 24 h. In combination studies, Rit was added to medium 1h before administration of the corresponding tryptamine. Vehicle-treated cultures were used as a control. After the 24 h drug exposure period, cultures were tested to assess nitrite release. To quantify nitrite concentrations in culture medium, supernatants of glial cultures were collected and mixed with an equal volume of Griess reagent (Sigma-Aldrich). Samples were then incubated at room temperature for 15 min and absorbance was measured at 540 nm on a microplate reader. Results are expressed as the mean±SEM of six replications in three different experiments

Series [2] concerns Human SH-SY5Y dopaminergic cells. As to the kind of experiment: 6-OHDA in vitro model of Parkinson's Disease, cell viability (MTT). The format is cell-based. The note with it: tryptamine 1 μM 1 h, then 6-OHDA 30 μM 24 h; for reduction in dopaminergic cell death in the presence of Ritanserin: Rit 1 μM 1 h; for percentage of viable dopaminergic neurons: vs 6-OHDA alone. The text has this: (§2) Example 9: DMT, DET, DPT and 5-MeO-DMT prevent dopaminergic cell death and inflammation (Only Measured for DMT) caused by the potent and selective dopaminergic toxin 6-OHDA in an in vitro model of Parkinson's Disease. These desired effects are preserved in the presence of the 5-HT2A antagonist Ritanserin (Rit). The Human SH-SY5Y dopaminergic cell line was obtained from Sigma-Aldrich, cultured in 96-well plates and propagated in RPMI medium containing glutamine (1%) and 15% of fetal bovine serum (FBS) plus antibiotic (gentamicin), under humidified 5% CO2 and 95% air. On attaining semiconfluence, separate groups of cells were treated with either: a) one of the four hallucinogenic tryptamines at 1 μM for 1 h, followed by 6-OHDA at 30 μM for 24 hours; or b) Rit at 1 μM for 1h, followed one of the four hallucinogenic tryptamines at 1 μM for an additional hour, at which point 6-OHDA was administered, also at 30 μM, and kept for 24 hours. Vehicle-treated cultures were used as controls. Cell cultures were then processed to assess cell viability (for all four tryptamines) and quantification of nitrite concentration (only performed in the DMT and DMT+Rit tests). Cell viability was measured using the MTT assay (Roche Diagnostic, GmbH), which is based on the ability of viable cells to reduce yellow MTT to blue formazan. After the aforementioned 24 h period in the presence of the different tryptamines or the respective tryptamine+Rit combinations, cells were incubated with MTT (0.5 mg/ml, 4 h) and subsequently solubilized in 10% SDS/0.01 M HCl for 12 h in the dark. The extent of MTT reduction was quantified by absorbance measurement at the 595 nm wavelength, as indicated in the instructions provided by the manufacturer. Nitrite quantification: Due to access to equipment problems at the time the experiments with DET, DPT and 5-MeO-DMT were conducted, the assessment of nitrite levels in the medium could only be done for the DMT experiments. These determinations were carried out as described in Example 8. Results from the cell viability tests are expressed as the percentage of viable dopaminergic cells measured. Results from nitrite determinations are expressed as actual concentrations (μM). Results from both techniques are presented in bar graphs.

For series [3], the system named is microglial cells. Put plainly: LPS-induced nitrite production (Griess) in primary microglial cultures. The format is cell-based, rat. Particulars: microglia; for reduction of LPS-induced nitrite in the presence of Rit: Rit 1 μM 1 h before tryptamine 1 μM, then LPS 10 μg/mL 24 h; for LPS-induced nitrite increases: tryptamine 1 μM before LPS 10 μg/mL, 24 h, vs LPS alone. Here is the method: as §1

The subject of series [4] is dopaminergic neurons of the Substantia nigra pars compacta. As to the kind of experiment: 6-OHDA in vivo model of Parkinson's Disease (injection into Substantia nigra pars compacta). Further details: species or system C57BL/6 mice. Particulars: 5 μg 6-OHDA alone into SNpc, 3 weeks. As to the method:
Example 10: DMT administration prevents dopaminergic cell death in a in vivo model of Parkinson's disease. Adult male C57BL/6 mice (8-12 weeks old) were used in this study. Animals were properly anaesthetized and placed in a stereotaxic apparatus (Kopf Instruments, CA). 6-OHDA (5 μg in […] PBS) was injected into the right side of the Substantia nigra pars compacta (SNpc) (coordinates from Bregma: posterior −3.2 mm; lateral +2.0 mm; ventral: +4.7 mm, according to the atlas of Paxinos and Franklin, The Mouse Brain in Stereotaxic Coordinates. 4. San Diego: Academic Press; 2012). Control animals of the same age were injected with PBS. A third group received an injection with 6-OHDA (5 μg) combined with DMT (0.1 μg) in […] PBS. Mice were then housed individually to recover and sacrificed 3 weeks later. At this point animals were anaesthetized and perfused transcardially with a 4% paraformaldehyde solution. The brains were removed, postfixed in the same solution at 4° C. overnight, cryoprotected in 20% sucrose, frozen, and 30 μm coronal sections were obtained in a cryostat. Free-floating sections were processed for double fluorescent immunohistochemistry. […] Neuronal integrity and specifically dopaminergic cell death was assessed by counting the percentage of TH^+ cells in the SNpc following a stereological approach. […] Images were analyzed using computer-assisted image analysis software (Soft Imaging System Corporation, Lakewood, Colo.). Results were expressed as the percentage of dopaminergic cell loss in the SNpc.

Series [5] is described as follows: 6-OHDA in vitro model of Parkinson's Disease, cell viability (MTT). The format is cell-based, human. Particulars: human, SH-SY5Y dopaminergic cells, 6-OHDA alone 30 μM 24 h.
Source text: as §2

Take `COc1ccc2[nH]cc(CCN(C)C)c2c1` [5-MeO-DMT, 5-methoxy-N,N-dimethyltryptamine]: in series [1], the “reduction of LPS-induced nitrite in the presence of Rit” value (“reduction of LPS-induced nitrite” for short) is “maintained” and the LPS-induced nitrite increases entry is given as “significantly reduced”. Moreover, in series [2], the “reduction in dopaminergic cell death in the presence of Ritanserin” value (shortened to “reduction in dopaminergic cell death”) was “maintained” and the “percentage of viable dopaminergic neurons” value was “significant increases”. Also, in series [3], the “reduction of LPS-induced nitrite” value is recorded as “maintained” and the LPS-induced nitrite increases result is on record as “significantly reduced”.
`NCCc1cc(O)c(O)cc1O` [6-OHDA, 6-hydroxy-dopamine, reference compound]: the “average percentage of dopaminergic cell loss in the SNpc” value in series [4] is 60%. Further, in series [5] (DET, DPT and 5-MeO-DMT experiments, read-out: cell viability, of the reference control value), the viability at 24 h, 30 μM was ~60%. Besides, the cytotoxicity at 24 h, 30 μM in series [5] (DMT experiments (graph A.1), read-out: reduction in the number of viable dopaminergic cells compared to vehicle treated cultures) turned out to be 50%.
As for `CCN(CC)CCc1c[nH]c2ccccc12` [DET, N,N-diethyltryptamine], in series [1], the “reduction of LPS-induced nitrite” value is “maintained” and the LPS-induced nitrite increases entry is “significantly reduced”. In series [2], the “reduction in dopaminergic cell death” value is “maintained” and the “percentage of viable dopaminergic neurons” value is recorded as “significant increases”. Besides, in series [3], the “reduction of LPS-induced nitrite” value is recorded as “maintained” and the LPS-induced nitrite increases result is “significantly reduced”.
In the case of `CCCN(CCC)CCc1c[nH]c2ccccc12` [DPT, N,N-dipropyltryptamine], in series [1], the “reduction of LPS-induced nitrite” value is “maintained” and the LPS-induced nitrite increases result is listed as “significantly reduced”. Moreover, in series [2], the “reduction in dopaminergic cell death” value is “maintained” and the “percentage of viable dopaminergic neurons” value is recorded as “significant increases”. Also, in series [3], the “reduction of LPS-induced nitrite” value was “maintained” and the LPS-induced nitrite increases entry was “significantly reduced”.
